In patent US12144910B2, “Methods of coating antimicrobial peptides on the biomaterial and the biomaterial coated thereby” (priority 2019, dated 2024):
≈ marks a conversion by molar mass, not a printed value. Read-outs that look alike come from different tables or passages of the source. Non-standard residues stand in square brackets, D forms with d. No end group written: not given here.

How the values were obtained:
[1] = type: physicochemical; design: time stable in human urine: unit not given here; details: for time stable in human urine: coated onto the microplate by SDS, examined under the microscope; for time stable in 10% FBS: single AMP coated by SDBS on polystyrene; for time stable in urine: single AMP coated by SDS (two-step) on polystyrene, SDS-PAGE; for stability in urine: one-day incubation
S. aureus [2] = test system: S. aureus
Method: (§2) Minimum inhibitory concentration (MIC) and minimum bactericidal concentration (MBC). […] The suspended AMPs were then loaded into wells of 96-well microplates and incubated at 37° C. overnight with gentle agitation at 100 rpm. The absorbance was measured by SpectraMax 190 microplate reader at 600 nm. The remaining cfu in the mixture was counted after plating on agar plate. Minimum inhibitory concentration (MIC) was defined as the lowest AMP concentration to keep the solution with the same absorbance as that of culture medium without bacteria. […] Alternatively, the MIC of coated AMPs was also determined. […] The free form AMPs as well as surfactant were dissolved in 200 μl sterile media (cell culture medium or human urine) and used as a control for quantitation. The potency of antimicrobial activity was expressed as the dilution folds to reach the MIC, in which no bacteria grow in the medium. At least three independent experiments were performed to determine the value.

E. coli ATCC 23502 = experiment: Potency of antimicrobial activity as dilution folds to reach the MIC; type: cell-based; details: for Potency (x) MIC to E. coli, Serum / Potency (x) MIC to E. coli, Urine: dilution fold, free form, 1× = 8 μg AMP; for Potency (x) MIC to E. coli, Serum: 16 μg PXB and/or 25 μg SDS in 200 μl serum; for Potency (x) MIC to E. coli, Urine: 16 μg PXB and/or 25 μg SDS in 200 μl urine
Method: Minimum inhibitory concentration (MIC) and minimum bactericidal concentration (MBC). […] Alternatively, the MIC of coated AMPs was also determined. […] The urine and serum were changed daily. Two μl of the incubation urine or serum being replaced (containing released/free SAAP159+PXB) or its dilutions were dotted onto the top layer of the microbe-containing agar plates and incubated at 37° C. overnight, following which the assessment of formation of growth inhibition zone was carried out. Defined amounts of mixed antimicrobials were used as a standard for the quantitation of the released antimicrobials. The amount of antimicrobial mixture which was able to form visible inhibition zone on the agar plate is defined as one unit of antimicrobial activity. […] The absorbance at 600 nm was then determined by SpectraMax 190 microplate reader. Minimal inhibitory concentration (MIC), which is defined as the concentration of (diluted) sample serum or urine which is able to keep the absorbance of the bacteria-containing media no different to that of media only, was determined. The potency of antimicrobial activity, which is defined as the dilution fold of antimicrobial-containing urine or serum that achieves MIC, was also determined.

[3] = test system: Human bladder carcinoma cell line (NTUB1); experiment: Cytotoxicity assay (WST-1); details: for Potency (x) Cytotoxicity to NTUB1 IC50: dilution fold, free form, 1× = 8 μg AMP, 16 μg PXB and/or 25 μg SDS in 200 μl
Method: NTUB1 cells were maintained at 37° C. in a humidified incubator under 5% CO2 atmosphere in RPMI1640 containing 10% FBS, 100 U/ml penicillin and 100 μg/ml streptomycin. The NTUB1 cells were seeded in the respective wells of a 96-well plate at a density of 1.5×10^4 cells/1000 for 24 hr. The cells were further incubated in 2000 free antimicrobial/surfactant or components released from silicone disc after overnight incubation. After 20 hr incubation, 900 of fresh culture medium and 100 of WST-1 agent (Roche, Basel, Switzerland) were added to the drained wells and incubated for two 2 hr before measuring the absorbance by SpectraMax 190 microplate reader at 450 nm. Percent of cytotoxicity was determined using the following formula: % cytotoxicity=[(A450sample−A450positive control)/(A450negative control−A450positive control)]. Positive control was NTUB1 cells only, whereas negative control was medium without cells.

mouse red blood cells = experiment: Hemolytic assay; details: dilution fold; free form, 1× = 8 μg AMP, 16 μg PXB and/or 25 μg SDS in 200 μl
Method: The blood cells were pelleted and rinsed three times with 10% FBS in RPMI1640, and re-suspended in the same buffer. The erythrocytes (1.5×10^7 cells) were then added to the solution containing free dual AMP/surfactant or overnight released components from silicone discs in 200 μl and incubation at 37° C. for one hr. The supernatants (150 μl) after centrifugation were transferred to 96-well plate for the measurement of the absorbance of released hemoglobin by SpectraMax 190 microplate reader (Molecular Devices, CA, USA) at 414 nm. Percent hemolysis was calculated using the following formula: % hemolysis=[(A414sample−A414medium)/(A4140.1% Triton-X 100−A414medium)]. Zero and 100% hemolysis were determined in medium and 0.1% Triton-X 100, respectively.

P. aeruginosa 27853 = experiment: Inhibition zone assay on agar plate; type: cell-based, Pseudomonas aeruginosa; details: free AMP, 2 μl dotted on agar plate
Method: (§1) Inhibition zone. Bacteria were cultured in Luria-Bertani broth and plated on Luria-Bertani agar for E. coli (ATCC 23502) and Pseudomonas aeruginosa (ATCC 27853) at 37° C. Staphylococcus aureus (ATCC 6538P) was cultured and plated in/on tryptic soy broth/agar. Candida albicans (ATCC 14053) were cultured in/on YM broth/agar at 30° C. Five ml of low melting agar (1%) mixed with 100 μl of overnight-cultured bacteria was spread on top of 1% regular agar plate. Two μl of antimicrobial peptides at various concentrations were dotted on the top layer of microbe-containing agar plates and incubated overnight for the development of inhibition zone.

S. aureus [4] = experiment: Inhibition zone assay on agar plate; type: cell-based, Staphylococcus aureus; details: free AMP, 2 μl dotted on agar plate
Method: as §1

[5] = free AMP, LB, 3.5 × 10^5 cfu/ml

Method for E. coli 23502: as §2

## GRFKRFRKKFKKLFKKLSPVIPLLHLG-OH (All in D form) (G[dR][dF][dK][dR][dF][dR][dK][dK][dF][dK][dK][dL][dF][dK][dK][dL][dS][dP][dV][dI][dP][dL][dL][dH][dL]G-OH) [D-BMAP27]
[1]
  time stable in human urine: at least three

## GRFKRFRKKFKKLFKKLSPVIPLLHLG (G[dR][dF][dK][dR][dF][dR][dK][dK][dF][dK][dK][dL][dF][dK][dK][dL][dS][dP][dV][dI][dP][dL][dL][dH][dL]G) [L-BMAP27]
[1]
  time stable in human urine: at least three

## RGLRRLGRKIVHVVKKYLPTVLRIIRRL-NH2 [SMAP28-3 + 2]
[1]
  time stable in human urine: at least three
  time stable in 10% FBS: one
E. coli 23502; 23502
  MBC: 8 µg/mL
  MIC: 4 µg/mL
S. aureus [2]
  MBC: 32 µg/mL
  MIC: 32 µg/mL

## RGLRRLGRKIVHVVKKYLPTVLRIIRIA-NH2 [SMAP28-3]
[1]
  time stable in human urine: at least three

## LKRLYKRVFRLLKRYYRQLRRPVR-OH [SAAP159]
[1]
  time stable in human urine: at least three
  time stable in urine: 12 days
E. coli 23502; 23502
  MBC: 64 µg/mL
  MIC: 64 µg/mL
S. aureus [2]
  MBC: >512 µg/mL
  MIC: 512 µg/mL

## Polymyxin B [PXB, reference compound]
E. coli ATCC 23502
  Potency (x) MIC to E. coli, Serum: 512 x
  Potency (x) MIC to E. coli, Urine: 128 x
[3]
  Potency (x) Cytotoxicity to NTUB1 IC50: <1 x
Mouse red blood cells
  Potency (x) Hemolysis of RBC HC50: <1 x

## CC[C@H](C)[C@H](NC(=O)[C@H](CCCNC(=N)N)NC(=O)[C@H](CCCNC(=N)N)NC(=O)[C@H](CC(C)C)NC(=O)[C@H](Cc1c[nH]c2ccccc12)NC(=O)[C@H](C)NC(=O)[C@H](CCCCN)NC(=O)[C@@H](NC(=O)[C@H](CCCNC(=N)N)NC(=O)[C@H](CCCNC(=N)N)NC(=O)[C@H](CC(C)C)NC(=O)[C@@H](N)Cc1c[nH]c2ccccc12)[C@@H](C)CC)C(=O)N[C@@H](CCCCN)C(=O)N[C@@H](C)C(=O)O [RRIKA]
E. coli 23502; 23502
  MBC: 128 µg/mL (≈ 68.6 µM)
  MIC: 128 µg/mL (≈ 68.6 µM)
S. aureus [2]
  MBC: 128 µg/mL (≈ 68.6 µM)
  MIC: 64 µg/mL (≈ 34.3 µM)

## RFRRLRKKWRKRLKKI-NH2 [T9W]
[1]
  time stable in urine: 6 days
E. coli 23502; 23502
  MBC: >512 µg/mL
  MIC: >512 µg/mL
P. aeruginosa 27853
  antimicrobial activity by inhibition zone (in words): preferentially killed
S. aureus [2]
  MBC: >512 µg/mL
  MIC: >512 µg/mL

## H-FIHHIIGGLFSAGKAIHRLIRRRRR-OH [TP4, antimicrobial peptide Piscidins 4]
[1]; coated by SDBS on microplates
  stability in urine: stable in urine
[1]; coated by SOS or SDSn on microplates
  stability in urine: not those coated by SOS or SDSn
[1]
  time stable in human urine: at least three

## H-FIHHIIGGLFSAGKAIHRLIRRRRR-OH [TP4-A12,15I]
[1]
  time stable in 10% FBS: two

## KWKLFKKIGIGAVLKVLKKG-NH2 [T18,19K]
[1]
  time stable in urine: 6 days
[1]; single AMP coated by SDS on polystyrene
  time stable in serum: not stable
E. coli 23502; [5]
  MBC: 64 µg/mL
  MIC: 64 µg/mL
S. aureus [2]; free AMP, TSB, 4 × 10^5 cfu/ml
  MBC: >512 µg/mL
  MIC: >512 µg/mL

## CCCCCCCCCCCCOS(=O)(=O)[O-].[Na+] [SDS, sodium dodecyl sulfate]
E. coli ATCC 23502
  Potency (x) MIC to E. coli, Serum: <1 x
  Potency (x) MIC to E. coli, Urine: <1 x
E. coli ATCC 23502; surfactant alone up to maximal amount (14 μg SDS, 25 μg SDBS) in 200 μl
  bactericidal activity against E. coli 23502 in urine or in 10% FBS: did not exert bactericidal activity
[3]; 25 μg in 200 μl
  cytotoxicity toward NTUB1 cells: 99%
[3]
  Potency (x) Cytotoxicity to NTUB1 IC50: 1-2 x
[3]; half of the total amount (of 25 μg in 200 μl)
  cytotoxicity toward NTUB1 cells: 35%
[3]; maximal amount that may be coated and released (SDS 14 μg; AMP pairs 12 μg each) in 200 μl
  cytotoxicity toward human bladder cells (NTUB1) (in words): low cytotoxicity
Mouse red blood cells
  Potency (x) Hemolysis of RBC HC50: 1-2 x

## H-RRLIRLILRLLR-NH2 [RR12]
[1]
  time stable in 10% FBS: two
S. aureus [4]
  antimicrobial activity by inhibition zone (in words): very active
E. coli 23502; 23502
  MBC: 4 µg/mL
  MIC: 4 µg/mL
S. aureus [2]
  MBC: 4 µg/mL
  MIC: 4 µg/mL
